Assay results published in US20110144159A1, “ETHER BENZYLIDENE PIPERIDINE ARYL CARBOXAMIDE COMPOUNDS USEFUL AS FAAH INHIBITORS” (Pfizer Inc, priority 2008, published 2011).

Molecular target: T1, Human FAAH (Homo sapiens, UniProt O00519)
T1 construct: made in house
T1 sequence (O00519 32-579 limits assumed): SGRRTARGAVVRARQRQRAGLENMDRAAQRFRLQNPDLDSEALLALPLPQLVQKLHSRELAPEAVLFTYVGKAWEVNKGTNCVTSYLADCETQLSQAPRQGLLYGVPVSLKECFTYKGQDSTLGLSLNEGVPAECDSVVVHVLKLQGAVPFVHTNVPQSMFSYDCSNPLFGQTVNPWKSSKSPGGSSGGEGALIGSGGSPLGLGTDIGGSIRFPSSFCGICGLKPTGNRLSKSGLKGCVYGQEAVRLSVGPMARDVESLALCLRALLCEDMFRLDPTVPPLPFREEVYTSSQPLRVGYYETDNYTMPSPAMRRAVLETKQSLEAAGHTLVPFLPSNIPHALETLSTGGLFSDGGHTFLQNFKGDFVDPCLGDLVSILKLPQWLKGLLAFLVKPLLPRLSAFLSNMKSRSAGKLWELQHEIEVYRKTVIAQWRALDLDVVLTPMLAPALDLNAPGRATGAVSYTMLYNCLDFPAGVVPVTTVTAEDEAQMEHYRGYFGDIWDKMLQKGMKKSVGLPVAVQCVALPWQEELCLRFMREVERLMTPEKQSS
Experiment: FAAH assay (glutamate dehydrogenase-coupled, oleamide substrate, absorbance at 340 nm)
Format: biochemical
Conditions: irreversible inhibition potency
Procedure, shortened: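 Human FAAH (1-4 nM) with 50 μM oleamide, coupled to glutamate dehydrogenase/NADH, pH 7.4, 7.5% DMSO and EtOH, 30° C; A340 read every 30 s for 90 min. Irreversible inhibition fitted for kobs per concentration, then Ki and kinact from kobs vs. [I].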

Compound | hFAAH KInact/K [M⁻¹ s⁻¹]
COCCOc1cccc(C=C2CCN(C(=O)Nc3cccnn3)CC2)c1 [Example 66, 4-[3-(2-methoxyethoxy)benzylidene]-N-pyridazin-3-ylpiperidine-1-carboxamide] | 503
CCOc1cccc(C=C2CCN(C(=O)Nc3cccnc3)CC2)c1 [Example 1, 4-(3-ethoxybenzylidene)-N-pyridin-3-ylpiperidine-1-carboxamide] | 2020
CCC(CC)Oc1cccc(C=C2CCN(C(=O)Nc3cccnn3)CC2)c1 [Example 27, 4-[3-(1-ethylpropoxy)benzylidene]-N-pyridazin-3-ylpiperidine-1-carboxamide] | 1030
O=C(Nc1cccnn1)N1CCC(=Cc2cccc(OCC3CCCCO3)c2)CC1 (stereo not drawn) [Example 104, N-pyridazin-3-yl-4-[3-(tetrahydro-2H-pyran-2-ylmethoxy)benzylidene]piperidine-1-carboxamide] | 4050
CC1CCC(COc2cccc(C=C3CCN(C(=O)Nc4cccnn4)CC3)c2)CC1 (stereo not drawn) [Example 101, 4-{3-[(4-methylcyclohexyl)methoxy]benzylidene}-N-pyridazin-3-ylpiperidine-1-carboxamide] | 3281
Cc1cc(COc2cccc(C=C3CCN(C(=O)Nc4cccnn4)CC3)c2)nn1C [Example 70, 4-{3-[(1,5-dimethyl-1H-pyrazol-3-yl)methoxy]benzylidene}-N-pyridazin-3-ylpiperidine-1-carboxamide] | 116
O=C(Nc1cccnn1)N1CCC(=Cc2cccc(OC3CCCCC3)c2)CC1 [Example 10, 4-[3-(cyclohexyloxy)benzylidene]-N-pyridazin-3-ylpiperidine-1-carboxamide] | 3300
4-{3-[(2,4-dimethyl-1,3-thiazol-5-yl)methoxy]benzylidene}-N-pyridazin-3-ylpiperidine-1-carboxamide [Example 69] | 331
CCC(C)COc1cccc(C=C2CCN(C(=O)Nc3cccnn3)CC2)c1 (stereo not drawn) [Example 50, 4-[3-(2-methylbutoxy)benzylidene]-N-pyridazin-3-ylpiperidine-1-carboxamide] | 4500
O=C(Nc1cccnc1)N1CCC(=Cc2cccc(OC3CCC3)c2)CC1 [Example 8, 4-[3-(cyclobutyloxy)benzylidene]-N-pyridin-3-ylpiperidine-1-carboxamide] | 324
O=C(Nc1cccnn1)N1CCC(=Cc2cccc(OC3CCOCC3)c2)CC1 [Example 44, N-pyridazin-3-yl-4-[3-(tetrahydro-2H-pyran-4-yloxy)benzylidene]piperidine-1-carboxamide] | 563
CC(C)C(C)Oc1cccc(C=C2CCN(C(=O)Nc3cccnn3)CC2)c1 (stereo not drawn) [Example 61, 4-[3-(1,2-dimethylpropoxy)benzylidene]-N-pyridazin-3-ylpiperidine-1-carboxamide] | 1420
CCCC(C)Oc1cccc(C=C2CCN(C(=O)Nc3cccnc3)CC2)c1 (stereo not drawn) [Example 34, 4-[3-(1-methylbutoxy)benzylidene]-N-pyridin-3-ylpiperidine-1-carboxamide] | 1810
O=C(Nc1cccnn1)N1CCC(=Cc2cccc(OCc3nccs3)c2)CC1 [Example 68, N-pyridazin-3-yl-4-[3-(1,3-thiazol-2-ylmethoxy)benzylidene]piperidine-1-carboxamide] | 452
CC1CCC(Oc2cccc(C=C3CCN(C(=O)Nc4cccnn4)CC3)c2)CC1 (stereo not drawn) [Example 39, 4-{3-[(4-methylcyclohexyl)oxy]benzylidene}-N-pyridazin-3-ylpiperidine-1-carboxamide] | 2090
CCC(Oc1cccc(C=C2CCN(C(=O)Nc3cccnn3)CC2)c1)C(C)C (stereo not drawn) [Example 64, 4-[3-(1-ethyl-2-methylpropoxy)benzylidene]-N-pyridazin-3-ylpiperidine-1-carboxamide] | 379
Cc1ncsc1CCOc1cccc(C=C2CCN(C(=O)Nc3cccnn3)CC2)c1 [Example 105, 4-{3-[2-(4-methyl-1,3-thiazol-5-yl)ethoxy]benzylidene}-N-pyridazin-3-ylpiperidine-1-carboxamide] | 6410
O=C(Nc1cccnn1)N1CCC(=Cc2cccc(OC3CC3)c2)CC1 [Example 33, 4-[3-(cyclopropyloxy)benzylidene]-N-pyridazin-3-ylpiperidine-1-carboxamide] | 1730
